From patent US11033527B2, “Non-hormonal treatment of the genitourinary syndrome of menopause” (IMMUGEN PHARMA LLC, priority 2018, dated 2021)
Several values for one entry are separate records, joined by “and”; a condition that tells them apart may be missing. Identical values can stand only once.

Experiments:
EpiVaginal tissues = experiment: macrophage infiltration in treated EpiVaginal tissues (barrier function), four hours in the presence of TNF-α; format: cell-based; details: vs. 28% into the untreated tissue; macrophages cultured with the tissue for four hours in the presence of TNF-α
Source text: FIG. 1 is a graph showing macrophage infiltration in hormone (estrogen) and L759,633-treated EpiVaginal tissues. L759,633 had the most striking effect on macrophage infiltration: only 6% of cells infiltrated into the tissue past 90 μm (vs. 28% into the untreated tissue, p<0.006 ANOVA). […] U=untreated control; E=estradiol; P=progesterone; and IMG=the cannabinoid L759,633.
Many of the above-noted genes are differentially regulated by estradiol in menopausal tissue. […] With respect to the barrier function, only 6% of macrophages which had been cultured with the tissue for four hours in the presence of TNF-α were capable of infiltrating into the tissue past 90 um (vs. 28% into the untreated tissue, p<0.006 ANOVA). […] This would indicate that the increased gene expression of the proteins involved with cross-linking of the keratin fibers, filagrins and desmosomal cadherins are all contributing to the fortification of the vaginal mucosa which would prevent the infiltration of pathogens and prevent the loss of solutes and water from within the tissue.

vaginal tissue construct = experiment: microarray analysis of differential gene expression (Affymetrix Human Gene 1.0 ST arrays), tissues treated for seven days via culture medium; format: cell-based
Source text: The data from the Affymetrix Human Gene 1.0 ST arrays were normalized using the Robust Multiarray Average (RMA) algorithm and a Chip Definition File (CDF) that maps the probes on the array to unique Entrez Gene identifiers. The result is a matrix in which each column corresponds to a sample. The expression values are log 2-transformed by default.
By using a fold change >1.5, an analysis of differentially expressed genes was done to identify those genes which were involved in the cornified envelope, keratinocyte differentiation, cell differentiation, epidermis development, epithelial cell differentiation, junctional proteins and signaling, immune response and innate immune response.

[1] = molecular target: endocannabinoid receptor type 2 (CB2) (Homo sapiens, UniProt P34972); details: cited from earlier work
endocannabinoid receptor type 2 (CB2), sequence (P34972 whole entry, species assumed): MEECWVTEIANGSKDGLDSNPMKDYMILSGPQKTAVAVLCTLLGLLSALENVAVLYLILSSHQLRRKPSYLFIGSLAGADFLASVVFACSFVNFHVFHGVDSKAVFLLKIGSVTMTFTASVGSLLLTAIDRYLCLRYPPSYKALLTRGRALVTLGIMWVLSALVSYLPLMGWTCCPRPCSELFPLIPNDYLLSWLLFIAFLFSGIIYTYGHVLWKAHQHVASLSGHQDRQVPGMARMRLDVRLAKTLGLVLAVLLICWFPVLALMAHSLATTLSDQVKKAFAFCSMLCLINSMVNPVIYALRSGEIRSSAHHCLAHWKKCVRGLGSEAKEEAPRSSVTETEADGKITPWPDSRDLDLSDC

[2] = down-regulated by this fold, given without sign

CCCCCCC(C)(C)c1cc(OC)c2c(c1)OC(C)(C)[C@@H]1CC=C(C)C[C@@H]21 [L759,633]
macrophages infiltrated into the tissue past 90 μm (EpiVaginal tissues): 6%
SPRR2D Fold Change (vaginal tissue construct): 3.431 fold
WFDC12 Fold Change (vaginal tissue construct): 7.884 fold
CFB down-regulation (vaginal tissue construct; [2]): 2.285 fold
CFH down-regulation (vaginal tissue construct; [2]): 1.769 fold
AGR2 Fold Change (vaginal tissue construct; gene Anterior gradient homolog 2 (Xenopus laevis)): −3.1 fold
CXCL8 Expr Fold Change (vaginal tissue construct; gene C-X-C motif chemokine ligand 8): −2.298 fold
CXCL17 Expr Fold Change (vaginal tissue construct; gene C-X-C motif chemokine ligand 17): −2.038 fold
CXCR2 Expr Fold Change (vaginal tissue construct; gene C-X-C motif chemokine receptor 2): 1.871 fold
CD14 Expr Fold Change (vaginal tissue construct; gene CD14 molecule): −2.154 fold
CD74 Expr Fold Change (vaginal tissue construct; gene CD74 molecule): −2.103 fold
CD151 Expr Fold Change (vaginal tissue construct; gene CD151 molecule (Raph blood group)): −1.664 fold
CD244 Expr Fold Change (vaginal tissue construct; gene CD244 molecule): 2.837 fold
CDSN Fold Change (vaginal tissue construct; gene Corneodesmosin): 9.465 fold
CCL28 Expr Fold Change (vaginal tissue construct; gene C−C motif chemokine ligand 28): −2.504 fold
FYB1 Expr Fold Change (vaginal tissue construct; gene FYN binding protein 1): −2.604 fold
IFNE Fold Change (vaginal tissue construct; gene Interferon Epsilon): 5.496 fold
IL19 Fold Change (vaginal tissue construct; gene Interleukin 19): −3.5 fold
NLRP10 Fold Change (vaginal tissue construct; gene NLR family pyrin domain containing 10): 15.93 fold
RNAse7 Fold Change (vaginal tissue construct; gene RNAse family): 8.158 fold
TIAM1 Expr Fold Change (vaginal tissue construct; gene T cell lymphoma invasion and metastasis 1): 2.249 fold
TNFAIP8 Expr Fold Change (vaginal tissue construct; gene TNF alpha induced protein 8): −1.601 fold
TNFRSF10C Expr Fold Change (vaginal tissue construct; gene TNF receptor superfamily member 10c): −2.458 fold
TNFRSF11B Expr Fold Change (vaginal tissue construct; gene TNF receptor superfamily member 11b): −2.012 fold
TSPAN1 Fold Change (vaginal tissue construct; gene Tetraspanin 1): −2.3 fold
TGM1 Fold Change (vaginal tissue construct; gene Transglutaminase 1): 1.966 fold
TGM3 Fold Change (vaginal tissue construct; gene Transglutaminase 3): 30.074 fold and 30.1 fold
TGM5 Fold Change (vaginal tissue construct; gene Transglutaminase 5): 2.237 fold
TRIM31 Fold Change (vaginal tissue construct; gene Tripartite motif-containing 31): −5.9 fold
VTCN1 Expr Fold Change (vaginal tissue construct; gene V-set domain containing T cell activation inhibitor 1): −4.666 fold
WFDC2 Fold Change (vaginal tissue construct; gene WAP four-disulfide core domain 2): −2.8 fold
WFDC5 Fold Change (vaginal tissue construct; gene WAP four-disulfide core domain 5): 3.139 fold
ALOX12B Fold Change (vaginal tissue construct; gene arachidonate 12-lipoxygenase, 12R type): 6.6 fold and 6.683 fold
ALOX12 Fold Change (vaginal tissue construct; gene arachidonate 12-lipoygenase): 1.5 fold
ALOXE3 Fold Change (vaginal tissue construct; gene arachidonate lipoxygenase 3): 3.659 fold
ASS1 Fold Change (vaginal tissue construct; gene arginosuccinate synthetase 1): −2.8 fold
CLDN17 Fold Change (vaginal tissue construct; gene claudin 17): 11 fold
CCDC59 Expr Fold Change (vaginal tissue construct; gene coiled-coil domain containing 59): −1.795 fold
CSF2RB Expr Fold Change (vaginal tissue construct; gene colony stimulating factor 2 receptor beta common subunit): 2.79 fold
CFH Expr Fold Change (vaginal tissue construct; gene complement factor H): −1.769 fold
CNFN Fold Change (vaginal tissue construct; gene cornifelin): 1.62 fold
CRCT1 Fold Change (vaginal tissue construct; gene cysteine-rich C-terminal 1): 2.6 fold
DMKN Fold Change (vaginal tissue construct; gene dermokine): 2.362 fold
DCS3 Fold Change (vaginal tissue construct; gene descmocollin 3): 1.9 fold
DSC1 Fold Change (vaginal tissue construct; gene desmocollin 1): 10.494 fold
DSC2 Fold Change (vaginal tissue construct; gene desmocollin 2): 1.7 fold
DSG1 Fold Change (vaginal tissue construct; gene desmoglein 1): 9.191 fold and 8.7 fold
FLG Fold Change (vaginal tissue construct; gene filaggrin): 4.549 fold
FLG2 Fold Change (vaginal tissue construct; gene filaggrin family member 2): 10.449 fold
GYS2 Fold Change (vaginal tissue construct; gene glycogen synthase 2 (liver)): 2.9 fold
KPRP Fold Change (vaginal tissue construct; gene human keratinocyte proline rich protein): 25.318 fold and 25.3 fold
IFIT5 Expr Fold Change (vaginal tissue construct; gene interferon induced protein with tetratricopeptide repeats 5): −2.183 fold
IFIH1 Expr Fold Change (vaginal tissue construct; gene interferon induced with helicase C domain 1): −1.922 fold
IRF1 Expr Fold Change (vaginal tissue construct; gene interferon regulatory factor 1): −3.253 fold
IRF9 Expr Fold Change (vaginal tissue construct; gene interferon regulatory factor 9): −1.535 fold
IL1RL2 Expr Fold Change (vaginal tissue construct; gene interleukin 1 receptor like 2): 2.508 fold
IL7R Expr Fold Change (vaginal tissue construct; gene interleukin 7 receptor): −2.852 fold
IL18BP Expr Fold Change (vaginal tissue construct; gene interleukin 18 binding protein): 1.532 fold
IL23A Expr Fold Change (vaginal tissue construct; gene interleukin 23 subunit alpha): 2.677 fold
IL33 Expr Fold Change (vaginal tissue construct; gene interleukin 33): −3.109 fold
IL36A Expr Fold Change (vaginal tissue construct; gene interleukin 36 alpha): 4.185 fold
IL36RN Expr Fold Change (vaginal tissue construct; gene interleukin 36 receptor antagonist): 4.668 fold
KLK6 Fold Change (vaginal tissue construct; gene kallikrein related peptidase 6): 4.651 fold
KLK8 Fold Change (vaginal tissue construct; gene kallikrein related peptidase 8): 1.842 fold
KLK10 Fold Change (vaginal tissue construct; gene kallikrein related peptidase 10): 2.554 fold
KLK12 Fold Change (vaginal tissue construct; gene kallikrein related peptidase 12): 3.933 fold
KLK13 Fold Change (vaginal tissue construct; gene kallikrein related peptidase 13): 3.957 fold
KRT1 Fold Change (vaginal tissue construct; gene keratin 1): 10.739 fold and 10.5 fold
KRT2 Fold Change (vaginal tissue construct; gene keratin 2): 1.801 fold
KRT20 Fold Change (vaginal tissue construct; gene keratin 20): −3.42 fold
KRT23 Fold Change (vaginal tissue construct; gene keratin 23): 1.912 fold
KRT24 Fold Change (vaginal tissue construct; gene keratin 24): 1.619 fold
KRTDAP Fold Change (vaginal tissue construct; gene keratinocyte differentiation associated protein): 15.751 fold and 15.7 fold
LCE1A Fold Change (vaginal tissue construct; gene late cornified envelope 1A): 1.884 fold
LCE1C Fold Change (vaginal tissue construct; gene late cornified envelope 1C): 4.063 fold
LCE1F Fold Change (vaginal tissue construct; gene late cornified envelope 1F): 1.593 fold
LCE2A Fold Change (vaginal tissue construct; gene late cornified envelope 2A): 6.392 fold
LCE2B Fold Change (vaginal tissue construct; gene late cornified envelope 2B): 11.182 fold
LCE2C/LCE2D Fold Change (vaginal tissue construct; gene late cornified envelope 2D): 24.247 fold
LCE3D Fold Change (vaginal tissue construct; gene late cornified envelope 3D): 15.6 fold
LCE3E Fold Change (vaginal tissue construct; gene late cornified envelope 3E): 16 fold
LCE5A Fold Change (vaginal tissue construct; gene late cornified envelope 5A): 1.63 fold
LIPM Fold Change (vaginal tissue construct; gene lipase family member M): 11.426 fold
LIPN Fold Change (vaginal tissue construct; gene lipase family member N): 7.346 fold
LIPN1 Fold Change (vaginal tissue construct; gene lipin 1): 3.775 fold
LOR Fold Change (vaginal tissue construct; gene loricrin): 7.932 fold
LY6G6C Expr Fold Change (vaginal tissue construct; gene lymphocyte antigen 6 family member G6C): 6.538 fold
HLA-C Expr Fold Change (vaginal tissue construct; gene major histocompatibility complex, class C): −1.691 fold
HLA-B Expr Fold Change (vaginal tissue construct; gene major histocompatibility complex, class I, B): −2.168 fold
HLA-DMB Expr Fold Change (vaginal tissue construct; gene major histocompatibility complex, class II, DM beta): −1.591 fold
HLA-DPA1 Expr Fold Change (vaginal tissue construct; gene major histocompatibility complex, class II, DP alpha 1): −1.7 fold
HLA-DRA Expr Fold Change (vaginal tissue construct; gene major histocompatibility complex, class II, DR alpha): −2.792 fold
HLA-DRB6 Expr Fold Change (vaginal tissue construct; gene major histocompatibility complex, class II, DR beta 6 (pseudogene)): −2.7 fold
ME1 Fold Change (vaginal tissue construct; gene malic enzyme 1, NADP(+)-dependent cytosolic): 2.9 fold
MUCL1 Fold Change (vaginal tissue construct; gene mucin like 1): ~2 fold and 1.964 fold
NCR3LG1 Expr Fold Change (vaginal tissue construct; gene natural killer cell cytotoxicity receptor 3 ligand 1): 2.482 fold
NFAT5 Expr Fold Change (vaginal tissue construct; gene nuclear factor of activated T cells 5): 2.265 fold
OLFM4 Expr Fold Change (vaginal tissue construct; gene olfactomedin 4): −6.772 fold
PNLIPRP3 Fold Change (vaginal tissue construct; gene pancreatic lipase-related protein 3): 1.6 fold
PLA2G2F Fold Change (vaginal tissue construct; gene phospholipase A2 group IIF): 2.054 fold
PLA2G3 Fold Change (vaginal tissue construct; gene phospholipase A2 group III): 2.218 fold
PLA2G4D Fold Change (vaginal tissue construct; gene phospholipase A2 group IVD): 3.526 fold
PLA2G4E Fold Change (vaginal tissue construct; gene phospholipase A2 group IVE): 3.36 fold
PLA2G10 Fold Change (vaginal tissue construct; gene phospholipase A2 group X): −3.027 fold
PLAC8 Fold Change (vaginal tissue construct; gene placenta-specific 8): −3.3 fold
PIGR Fold Change (vaginal tissue construct; gene polymeric immunoglobulin receptor): −2.4 fold
PDCD1LG2 Expr Fold Change (vaginal tissue construct; gene programmed cell death 1 ligand 2): −1.74 fold
RPS15A Expr Fold Change (vaginal tissue construct; gene ribosomal protein S15a): −1.78 fold
SERPINB12 Fold Change (vaginal tissue construct; gene serpin family B member 12): 5.202 fold and 5.1 fold
STAT4 Expr Fold Change (vaginal tissue construct; gene signal transducer and activator of transcription 4): −2.518 fold
SPRR2G Fold Change (vaginal tissue construct; gene small proline rich protein 2G): 10.387 fold
SPRR4 Fold Change (vaginal tissue construct; gene small proline rich protein 4): 2.619 fold
SBSN Fold Change (vaginal tissue construct; gene suprabasin): 4.36 fold and 4.3 fold
TLR3 Expr Fold Change (vaginal tissue construct; gene toll like receptor 3): −3.274 fold
TRPV3 Fold Change (vaginal tissue construct; gene transient receptor potential cation channel subfamily V member 3): 2.8 fold and 2.804 fold
UBA7 Expr Fold Change (vaginal tissue construct; gene ubiquitin like modifier activating enzyme 7): −2.031 fold
VEGFA Fold Change (vaginal tissue construct; gene vascular endothelial growth factor A): 2.0 fold and 1.885 fold
mir-23 Expr Fold Change (vaginal tissue construct; microRNA 23a): 2.823 fold
mir-224 Expr Fold Change (vaginal tissue construct; microRNA 224): 6.266 fold
MMP10 expression (vaginal tissue construct; result in words): downregulated
agonist type by receptor internalization [1]: partial agonist
